This is an account of results in patent US20190233899A1, “METHODS FOR SELECTING TREATMENT REGIMENS AND PREDICTING OUTCOMES IN CANCER PATIENTS” (BIOMEDICA DIAGNOSTICS INC., priority 2002, published 2019).

Experiment [1] can be described thus: First study: Cox proportional hazards analysis of disease-free survival in primary breast cancer patients (n = 761, Munich). Format: in vivo, human. Conditions: primary breast cancer n = 761, median follow-up 48 months; therapy yes vs no. An excerpt:
The first study evaluated the clinical relevance of the combination of uPA and PAI-1 in 761 individual primary breast cancer patients (Table 3). Patients either underwent a modified radical mastectomy (n=389) or breast conserving surgery with subsequent breast irradiation (n=372) at the Department of Obstetrics and Gynecology, Technical University of Munich, Germany, between 1987 and 1998. Informed consent for analysis of tumor biological factors was obtained at primary surgery. Therapy decisions were based solely on consensus recommendations at the time but not on uPA and PAI-1. For 745 patients, information on adjuvant systemic therapy was available (Table 3). Median age of the patients at time of primary surgery was 56 years (range: 28-92 years). […] In addition to the collective as a whole, the subset of node-negative patients without adjuvant systemic therapy (n=269; median follow-up 60 months) was analyzed separately (Table 3). […]
In studies involving patients from Munich, uPA and PAI-1 antigen have been prospectively measured by ELISA (uPA: Imubind #894. PAI-1: Imubind #821; both from American Diagnostica Inc., Greenwich, Conn.) since 1987 in all primary breast cancer patients treated at our institution. […] The antigen levels in detergent extracts of breast cancer tissue are expressed as ng of analyte per mg of tissue protein. […]

The nature of experiment [2]: Second study: Cox proportional hazards analysis of disease-free survival stratified by data set, primary breast cancer patients (Munich and Rotterdam, n = 3424). Format: in vivo, human. Conditions: for Hazard ratio (95% Confidence interval), multivariate Cox model (DFS), main effect: yes (1) vs. no (0). An excerpt:
The second study involved a total of 3424 primary breast cancer patients from two different data sets. One set was collected from the Department of Obstetrics and Gynecology, Technical University of Munich, Germany, and the other was from the Department of Medical Oncology, Rotterdam Cancer Institute and University Hospital Rotterdam, the Netherlands. Patients had been treated for primary breast cancer between 1987 and 1999. Treatment decisions with regard to primary surgery and adjuvant systemic therapy were based primarily on consensus recommendations at the time. Treatment strategies differed between Munich and Rotterdam, particularly regarding administration of adjuvant systemic therapy to node-positive patients (Table 4b) (Harbeck et al., 2002, J. Clin. Oncology 20:1000-1009; Foekens et al., 2000, Cancer Res. 60:636-643). Of those patients treated by adjuvant chemotherapy, the majority received CMF (Rotterdam: 76%, Munich: 65%); about one-fifth in both collectives received anthracycline-containing regimens (Rotterdam: 24%, Munich: 21%); and the rest of the Munich patients were treated by other chemotherapy regimens. The endocrine treatment used in both collectives was tamoxifen.
Median age of the patients at time of primary surgery was 56 years (range: 22-94 years). Both data sets contained established clinical and histo-morphological factors such as number of involved axillary lymph nodes, pT stage, estrogen receptor status, progesterone receptor status, exposure to adjuvant chemotherapy (CT), adjuvant endocrine therapy (HT), or adjuvant radiotherapy (RT), as well as uPA and PAI-1 measurements. Since the scoring systems for assessment of grade differed substantially between the centers and could thus represent different biological tumor characteristics, grade was not included in the combined stratified analysis. The variables were re-coded as described below in Section 6.1.3. Patients with an uncertain number of affected lymph nodes were included for computing the univariate distributions of ranked variables but not in multivariate survival analysis. Forty-five Rotterdam patients with an uncertain number of affected lymph nodes and three Munich patients with missing information on chemotherapy were not included. At the time of primary therapy, no patient had any clinical or radiological evidence of distant metastases. Follow-up data were obtained at regular intervals. Median follow-up time of all patients still alive at time of analysis was 83 months (range: 1-183 months). Within the follow-up period, 1319 patients (39%) experienced disease recurrence and 1200 patients (35%) died.
In studies involving patients from Munich, uPA and PAI-1 antigen have been prospectively measured by ELISA (uPA: Imubind #894. PAI-1: Imubind #821; both from American Diagnostica Inc., Greenwich, Conn.) since 1987 in all primary breast cancer patients treated at our institution. (Jänicke et al., 1994, Cancer Res. 54: 2527-2530). The antigen levels in detergent extracts of breast cancer tissue are expressed as ng of analyte per mg of tissue protein. In the study involving Rotterdam patients, uPA and PAI-1 antigen were measured by ELISA, employing the same antibodies as above, in cytosol preparations of the primary tumor as described by Foekens et al., 2000, Cancer Res., 60:636-643.
Due to differences in measurement techniques between the Munich and Rotterdam data sets, data re-coding was required. For the laboratory measurements of uPA, PAI-1, Estrogen receptor, and progesterone receptor, fractional ranks were computed with respect to each distribution. Fractional ranks also keep the variables on a convenient scale from zero to one, thus facilitating comparison of the […] coefficients of different factors. In particular, ranked estrogen receptor and progesterone receptor measurements were included as continuous variables in the statistical models, even though biochemical and immunohistochemical assays were used. […]

As to `CC/C(=C(\c1ccccc1)c1ccc(OCCN(C)C)cc1)c1ccccc1` [Adjuvant endocrine therapy, tamoxifen], the “Disease-free survival (DFS) multivariate Relative risk (95% Confidence interval)” value in experiment [1] was 0.5 (0.3-0.7). For the same compound, the “HR (DFS) of therapy, separate Cox model” value in experiment [2] (0-3 affected lymph nodes, high-uPA/PAI-1 subgroup n=1174) is 0.51 (0.33-0.78). Moreover, the “95% CI for the HR (DFS) of therapy, separate Cox model” value in experiment [2] (0-3 affected lymph nodes, low-uPA/PAI-1 group n=1418, not significant) is 0.59-1.44. Moreover, the “HR (DFS) of therapy, separate Cox regression (2-stage model)” value in experiment [2] (4 or more affected nodes, low-uPA/PAI-1 subgroup) was 0.62 (95% CI, 0.43-0.90). Also, the “HR (DFS) of therapy, separate Cox regression model” value in experiment [2] (4 or more nodes, high uPA/PAI-1) was 0.68 (95% CI, 0.49-0.95). Further, the “Hazard ratio (95% Confidence interval), multivariate Cox model (DFS), main effect” value is on record as 0.68 (0.56-0.82) in experiment [2] (all patients n = 3,376); 0.68 in experiment [2] (all patients n = 3,376, listed as HT); 0.66 (0.48-0.90) in experiment [2] (patients with 0-3 involved axillary nodes n = 2592); 0.68 (0.53-0.87) in experiment [2] (patients with 4 or more involved axillary nodes n = 784). In addition, the “HR (DFS) due to therapy, separate multivariate Cox model” value in experiment [2] (all patients, high-uPA/PAI-1 subgroup) was 0.63; in experiment [2] (all patients, low-uPA/PAI-1 subgroup), 0.74. The “95% CI for HR of interaction HT with uPA/PAI-1 (DFS)” value in experiment [2] (all patients, no significant interaction) is on record as 0.66-1.28.
